Tests used:
Carbonic anhydrase 2 [1] = target: T1, Carbonic anhydrase 2 (Homo sapiens, UniProt P00918)
Carbonic anhydrase 2 [2] = target: T1, Carbonic anhydrase 2; remark: listed apart in the source
Carbonic anhydrase 2 [3] = target: T1, Carbonic anhydrase 2; remark: listed apart in the source

SMILES	IC50 (Carbonic anhydrase 2 [1]) [nM]	Kd (Carbonic anhydrase 2 [2]) [nM]	Ki (Carbonic anhydrase 2 [3]) [nM]
CC(C)(C)C(=O)Oc1ccc2sc(S(N)(=O)=O)cc2c1	2.6	–	–
CCN[C@H]1CN(CCCCOC)S(=O)(=O)c2sc(S(N)(=O)=O)cc21	3.2	0.13	–
CN(C)Cc1cc(S(=O)(=O)c2ccc(S(N)(=O)=O)s2)ccc1O	0.7	–	–
CC1(C)O[C@H]2[C@@H]3OS(=O)(=O)O[C@@H]3CC[C@@]2(COS(N)(=O)=O)O1	130	–	–
NS(=O)(=O)c1cc2cc(N3CCSCC3)sc2s1	2.6	–	0.44
CN(C)c1cccc2c(S(N)(=O)=O)cccc12	–	93000	–
COCCOCCN(CCOC)c1cc2cc(S(N)(=O)=O)sc2s1	2.8	–	1.58
N[C@@H](Cc1ccccc1)C(=O)NCCOCCOCCNC(=O)c1ccc(S(N)(=O)=O)cc1 [PHENYLALANYLAMINODI(ETHYLOXY)ETHYL BENZENESULFONAMIDEAMINOCARBONYLBENZENESULFONAMIDE]	–	14	–
NS(=O)(=O)c1cc2cc(N3CCOCC3)sc2s1	3	–	1.1
CCCCCCCCCS(=O)(=O)C(F)S(N)(=O)=O (configuration not stated)	3	–	–
NC(=O)NCCOCCOCCNC(=O)c1ccc(S(N)(=O)=O)cc1	–	43	–
CN(C)S(=O)(=O)Oc1ccc2nc(S(N)(=O)=O)sc2c1	1.2	–	–
NS(=O)(=O)OCCOc1ccc(-n2ccnc2)cc1	–	–	7
